The source made the active and inactive calls.
Experiments:
[1] = biological target: T1, Mannose-6-phosphate isomerase (Homo sapiens, UniProt P34949); experiment: Confirmation of compounds inhibiting phosphomannose isomerase (PMI) via a fluorescence intensity assay using a high concentration of mannose 6-phosphate. [Related pubchem assays (depositor defined):AID1209, AID1220, AID1545, AID1553, AID1620]
T1 sequence (P34949 whole entry): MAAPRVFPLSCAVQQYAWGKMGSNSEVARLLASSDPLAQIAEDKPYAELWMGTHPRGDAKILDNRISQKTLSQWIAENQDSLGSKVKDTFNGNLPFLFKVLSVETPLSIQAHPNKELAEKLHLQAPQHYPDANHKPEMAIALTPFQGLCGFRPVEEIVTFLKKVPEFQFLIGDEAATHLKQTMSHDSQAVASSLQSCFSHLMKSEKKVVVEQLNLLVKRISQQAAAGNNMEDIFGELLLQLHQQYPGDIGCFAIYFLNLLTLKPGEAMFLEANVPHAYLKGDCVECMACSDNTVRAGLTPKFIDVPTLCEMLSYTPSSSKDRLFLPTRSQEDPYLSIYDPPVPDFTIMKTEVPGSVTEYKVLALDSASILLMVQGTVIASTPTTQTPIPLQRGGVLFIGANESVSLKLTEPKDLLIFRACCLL

[2] = biological target: T1, Mannose-6-phosphate isomerase; experiment: phosphomannose isomerase inhibition – biochemical, fluorescence intensity, confirmation (AID 1535)
[3] = biological target: Alkaline phosphatase, placental type (Homo sapiens, UniProt P05187); experiment: human placental alkaline phosphatase inhibition – biochemical, luminescence, confirmation (AID 1512); format: functional
Sequence of Alkaline phosphatase, placental type (P05187 whole entry): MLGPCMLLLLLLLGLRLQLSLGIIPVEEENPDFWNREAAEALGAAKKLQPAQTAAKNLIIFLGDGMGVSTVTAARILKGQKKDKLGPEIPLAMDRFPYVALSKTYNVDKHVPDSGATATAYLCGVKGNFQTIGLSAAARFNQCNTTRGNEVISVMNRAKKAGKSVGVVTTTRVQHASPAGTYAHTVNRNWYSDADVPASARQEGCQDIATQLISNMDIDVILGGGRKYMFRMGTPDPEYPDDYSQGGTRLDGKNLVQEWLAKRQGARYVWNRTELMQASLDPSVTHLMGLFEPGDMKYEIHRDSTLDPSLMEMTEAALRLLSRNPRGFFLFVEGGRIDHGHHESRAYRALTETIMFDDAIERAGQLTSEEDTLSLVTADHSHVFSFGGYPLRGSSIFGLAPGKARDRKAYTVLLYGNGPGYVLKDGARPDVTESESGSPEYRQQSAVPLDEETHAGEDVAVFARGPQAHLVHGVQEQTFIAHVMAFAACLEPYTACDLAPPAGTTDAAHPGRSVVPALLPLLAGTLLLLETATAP

[4] = biological target: T2, Kappa-type opioid receptor (Homo sapiens, UniProt P41145); format: functional
T2 sequence (P41145 whole entry): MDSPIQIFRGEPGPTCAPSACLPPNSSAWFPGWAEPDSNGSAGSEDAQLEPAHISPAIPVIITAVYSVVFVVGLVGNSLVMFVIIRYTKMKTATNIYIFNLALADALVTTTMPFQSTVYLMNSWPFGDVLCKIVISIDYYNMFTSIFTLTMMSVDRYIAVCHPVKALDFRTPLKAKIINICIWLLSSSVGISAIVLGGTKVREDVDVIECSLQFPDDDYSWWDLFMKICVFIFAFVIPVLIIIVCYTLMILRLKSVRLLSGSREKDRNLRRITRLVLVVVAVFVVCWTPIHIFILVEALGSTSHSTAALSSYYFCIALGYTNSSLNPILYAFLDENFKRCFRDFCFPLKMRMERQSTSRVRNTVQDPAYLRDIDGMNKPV

[5] = microbe, parasite or virus in culture; format: functional; details: Mycobacterium tuberculosis
[6] = biological target: T2, Kappa-type opioid receptor; format: functional; remark: listed apart in the source
[7] = cells; format: functional
[8] = THP-1 cell cytotoxicity, dose response, cytotoxicity control for non-replicating M. tuberculosis project (AID 489025); format: functional
[9] = biological target: Beta-galactosidase (Escherichia coli, UniProt Q8VNN2); format: functional
Sequence of Beta-galactosidase (Q8VNN2 whole entry): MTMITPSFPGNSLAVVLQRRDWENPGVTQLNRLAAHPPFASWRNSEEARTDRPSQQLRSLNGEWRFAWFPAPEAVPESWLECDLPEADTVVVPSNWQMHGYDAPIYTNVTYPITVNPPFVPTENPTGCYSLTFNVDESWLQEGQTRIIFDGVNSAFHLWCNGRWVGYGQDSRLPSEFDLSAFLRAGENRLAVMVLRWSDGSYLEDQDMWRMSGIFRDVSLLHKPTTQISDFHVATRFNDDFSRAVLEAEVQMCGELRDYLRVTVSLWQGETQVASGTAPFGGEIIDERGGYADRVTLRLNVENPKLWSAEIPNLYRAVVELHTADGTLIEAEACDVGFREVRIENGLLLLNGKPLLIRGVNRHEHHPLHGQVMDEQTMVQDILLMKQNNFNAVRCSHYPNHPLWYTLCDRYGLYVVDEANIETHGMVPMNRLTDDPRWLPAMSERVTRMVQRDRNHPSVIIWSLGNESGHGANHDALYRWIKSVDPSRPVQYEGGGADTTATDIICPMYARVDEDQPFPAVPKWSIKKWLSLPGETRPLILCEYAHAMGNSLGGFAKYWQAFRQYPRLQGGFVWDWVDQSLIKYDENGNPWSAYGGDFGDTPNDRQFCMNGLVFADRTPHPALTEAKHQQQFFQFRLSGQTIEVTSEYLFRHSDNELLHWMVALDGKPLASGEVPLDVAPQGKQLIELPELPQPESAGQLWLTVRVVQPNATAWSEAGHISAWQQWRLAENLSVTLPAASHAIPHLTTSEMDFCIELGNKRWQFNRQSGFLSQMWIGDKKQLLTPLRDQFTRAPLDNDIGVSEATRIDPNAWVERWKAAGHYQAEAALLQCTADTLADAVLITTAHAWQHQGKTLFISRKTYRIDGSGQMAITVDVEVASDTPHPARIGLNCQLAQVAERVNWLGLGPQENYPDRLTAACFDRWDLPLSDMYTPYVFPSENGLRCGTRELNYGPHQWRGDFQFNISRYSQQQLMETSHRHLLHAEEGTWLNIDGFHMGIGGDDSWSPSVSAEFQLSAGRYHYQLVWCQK

[10] = biological target: Caspase-7 (Homo sapiens, UniProt P55210); experiment: activation of caspase-7 zymogen – biochemical, absorbance, counter-screen for procaspase-3 activator project, dose response (AID 489013)
Sequence of Caspase-7 (P55210 24-198 limits assumed): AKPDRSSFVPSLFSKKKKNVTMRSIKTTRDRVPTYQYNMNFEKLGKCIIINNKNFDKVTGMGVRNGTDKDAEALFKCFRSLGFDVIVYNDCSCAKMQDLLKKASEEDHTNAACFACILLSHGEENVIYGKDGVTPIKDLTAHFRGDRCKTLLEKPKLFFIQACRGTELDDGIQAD
Sequence of Caspase-7 (P55210 207-303 limits assumed): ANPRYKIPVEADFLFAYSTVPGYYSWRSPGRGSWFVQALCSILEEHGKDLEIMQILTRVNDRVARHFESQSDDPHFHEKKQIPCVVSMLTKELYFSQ

[11] = Luminescence Cell-Based Dose Retest to Confirm Inhibitors of Cancer Stem Cells. [Related pubchem assays (depositor defined):AID2717, AID2721]; format: functional, Homo sapiens; details: Homo sapiens
[12] = biological target: T3, Caspase-3 (Homo sapiens, UniProt P42574); experiment: activation of caspase-3 zymogen – biochemical, absorbance, dose response (AID 489014)
T3 sequence (P42574 whole entry): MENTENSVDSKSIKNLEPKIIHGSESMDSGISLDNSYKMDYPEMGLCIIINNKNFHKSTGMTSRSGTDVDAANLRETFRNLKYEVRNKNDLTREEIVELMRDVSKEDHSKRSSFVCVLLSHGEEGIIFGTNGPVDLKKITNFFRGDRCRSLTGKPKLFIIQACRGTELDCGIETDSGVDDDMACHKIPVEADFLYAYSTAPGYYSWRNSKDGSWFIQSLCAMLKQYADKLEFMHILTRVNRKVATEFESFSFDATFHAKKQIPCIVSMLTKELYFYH

[13] = biological target: T4, G-protein coupled receptor 55 (Homo sapiens, UniProt Q9Y2T6); experiment: selective activators of receptor GPR55 – imaging, U2OS cells, beta-arrestin-GFP redistribution, primary screen (AID 1961); format: functional
T4 sequence (Q9Y2T6 whole entry): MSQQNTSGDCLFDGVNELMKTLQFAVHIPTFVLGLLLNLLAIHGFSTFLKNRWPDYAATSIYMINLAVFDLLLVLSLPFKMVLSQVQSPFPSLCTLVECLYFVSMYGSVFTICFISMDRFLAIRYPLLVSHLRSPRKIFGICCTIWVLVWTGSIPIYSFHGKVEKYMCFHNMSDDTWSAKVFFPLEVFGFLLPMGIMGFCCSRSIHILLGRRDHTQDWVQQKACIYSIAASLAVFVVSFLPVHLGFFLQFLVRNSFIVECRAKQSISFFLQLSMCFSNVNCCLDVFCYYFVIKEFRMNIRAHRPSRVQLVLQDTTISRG

[14] = Trypanosoma cruzi growth suppression in host cells – NIH3T3 host cells, beta-gal luminescence, confirmation (AID 2044); format: functional, cell-based;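 also: intracellular parasites grown in NIH/3T3 mouse fibroblasts as host cells; luminescent beta-galactosidase reporter signal from transgenic T. cruzi replicating inside host cells; inhibitors lower the luminescence signal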
[15] = NIH3T3 cell viability loss – ATP luminescence, mouse fibroblasts, counter-screen, dose response (AID 2010); format: functional, cell-based;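 also: cells exposed to compound for about 90 hours before reading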
[16] = test system: Vero; experiment: cells; format: functional, cell-based; details: Chlorocebus sabaeus
[17] = test system: Vero; experiment: cells; format: functional; details: Chlorocebus sabaeus
[18] = biological target: Hexokinase (Trypanosoma brucei, UniProt Q38C41); experiment: Confirmation assay for inhibitors of Trypanosoma brucei hexokinase 1-Analogue-first series. [Related pubchem assays (depositor defined):AID1430, AID1632, AID2516, AID2560, AID2579, AID2600, AID449725, AID492951]; format: functional
Sequence of Hexokinase (Q38C41 whole entry): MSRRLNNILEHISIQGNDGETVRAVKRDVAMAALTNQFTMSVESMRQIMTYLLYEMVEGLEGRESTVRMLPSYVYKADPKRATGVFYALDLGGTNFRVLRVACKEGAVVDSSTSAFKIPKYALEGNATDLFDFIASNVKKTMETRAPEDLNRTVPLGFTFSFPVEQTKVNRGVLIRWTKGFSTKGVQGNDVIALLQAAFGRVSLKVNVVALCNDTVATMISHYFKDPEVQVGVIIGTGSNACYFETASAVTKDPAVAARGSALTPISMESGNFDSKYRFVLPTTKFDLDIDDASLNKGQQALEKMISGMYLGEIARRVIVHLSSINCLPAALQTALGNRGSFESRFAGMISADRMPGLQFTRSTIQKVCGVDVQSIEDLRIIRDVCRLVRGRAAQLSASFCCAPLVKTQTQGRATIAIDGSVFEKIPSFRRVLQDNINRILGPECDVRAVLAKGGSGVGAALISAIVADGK

[19] = biological target: Glutathione S-transferase omega-1 (Homo sapiens, UniProt P78417); experiment: IC50 of human GSTO1 blockade by gel ABPP – biochemical, SE-Rh probe, in-gel fluorescence, powder samples, set 2, late-stage follow-up (AID 463142); format: functional
Sequence of Glutathione S-transferase omega-1 (P78417 whole entry): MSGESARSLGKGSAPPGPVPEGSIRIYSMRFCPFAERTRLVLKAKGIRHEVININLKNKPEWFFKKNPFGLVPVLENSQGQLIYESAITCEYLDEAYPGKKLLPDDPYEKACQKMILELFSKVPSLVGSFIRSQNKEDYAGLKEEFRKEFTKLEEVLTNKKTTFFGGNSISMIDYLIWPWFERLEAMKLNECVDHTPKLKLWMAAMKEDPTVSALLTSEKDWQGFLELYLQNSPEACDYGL

[20] = biological target: T5, Sphingosine 1-phosphate receptor 4 (Homo sapiens, UniProt O95977); experiment: Late-stage fluorescence dose response cell-based assay to identify agonists of the Sphingosine 1-Phosphate Receptor 4 (S1P4): purchased compounds EC50. [Related pubchem assays (depositor defined):AID1509, AID1523, AID1563, AID1686, AID1701, AID1801]; format: functional
T5 sequence (O95977 whole entry): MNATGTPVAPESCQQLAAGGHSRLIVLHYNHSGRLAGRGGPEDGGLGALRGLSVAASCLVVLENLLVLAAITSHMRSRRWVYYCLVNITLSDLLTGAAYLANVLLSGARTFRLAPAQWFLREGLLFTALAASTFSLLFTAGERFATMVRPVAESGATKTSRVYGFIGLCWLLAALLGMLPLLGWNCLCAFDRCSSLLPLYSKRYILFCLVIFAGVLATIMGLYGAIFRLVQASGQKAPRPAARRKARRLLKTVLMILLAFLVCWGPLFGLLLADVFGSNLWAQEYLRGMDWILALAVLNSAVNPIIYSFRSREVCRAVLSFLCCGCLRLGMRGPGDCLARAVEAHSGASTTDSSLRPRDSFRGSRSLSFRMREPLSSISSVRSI

[21] = biological target: T6, X-box-binding protein 1 (Homo sapiens, UniProt P17861); format: functional, Cricetulus griseus;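 also: confirmatory dose-response counter-screen serving a CHOP assay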
T6 sequence (P17861 whole entry): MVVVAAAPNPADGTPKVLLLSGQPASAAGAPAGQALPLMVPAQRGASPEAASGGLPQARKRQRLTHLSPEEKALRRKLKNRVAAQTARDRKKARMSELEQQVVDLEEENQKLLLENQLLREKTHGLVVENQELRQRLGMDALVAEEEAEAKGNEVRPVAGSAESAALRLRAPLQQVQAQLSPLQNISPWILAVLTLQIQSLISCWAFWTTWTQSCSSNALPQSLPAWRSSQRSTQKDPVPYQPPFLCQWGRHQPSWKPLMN

[22] = test system: H9c2; experiment: cells; format: functional, cell-based; details: Rattus norvegicus, H9c2, Myocardium;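 also: confirmatory concentration-response retest of ultra-high-throughput screening hits for modulation of myocardial damage; cell death induced by hydrogen peroxide oxidative stress; compound pretreatment for 60 min then peroxide exposure for 2 h; potency is for protecting the cells against peroxide damage rather than for killing them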
[23] = biological target: DNA damage-inducible transcript 3 protein (Mus musculus, UniProt P35639); format: functional, Cricetulus griseus
Sequence of DNA damage-inducible transcript 3 protein (P35639 whole entry): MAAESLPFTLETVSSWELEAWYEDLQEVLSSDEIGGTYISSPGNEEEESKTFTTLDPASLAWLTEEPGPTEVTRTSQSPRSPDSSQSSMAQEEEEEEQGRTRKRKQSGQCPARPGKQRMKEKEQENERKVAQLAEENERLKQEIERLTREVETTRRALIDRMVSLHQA

[24] = biological target: T4, G-protein coupled receptor 55; experiment: inhibition of LPI-stimulated GPR55 beta-arrestin translocation – imaging, U2OS, beta-arrestin-GFP, LPI agonist, primary screen (AID 2013); format: functional;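 also: antagonist potency measured as reduced agonist-driven arrestin aggregation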
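For AC50 in this document: cells exposed to compound for roughly 70 hours or longer before luminescence read.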

With C=CCN1C(=O)/C(=N\Nc2ccccc2O)c2ccccc21 the IC50 [1] was > 100 µM (inactive), the IC50 [2] was > 100 µM (inactive) and the IC50 [3] was > 100 µM (inactive).

With CC(C)(C)NC(=O)C(=O)NNC(=O)c1ccc(C(C)(C)C)cc1 the IC50 [4] was > 31.5 µM (inactive), the CC50 [5] was > 40 µM (active) and the IC50 [6] was > 32 µM. The IC50 [7] was 19.4 µM (active), the CC50 [8] was > 40 µM (active) and the EC50 [9] was > 31.5 µM (inactive).

With COc1ccc(-c2sc3ccc(OC)cc3c2C#Cc2ccccn2)cc1 the EC50 [10] was > 85.2 µM (inactive), the AC50 [11] was 3 µM (active) and the EC50 [12] was > 85.2 µM (inactive).

In the case of Cc1ccc(C(=O)C(C(=O)/C=C/c2ccccc2)=C2SCCCS2)cc1, the EC50 [13] is reported as 3.63 µM (active), the EC50 [14] is reported as 0.99 µM (active) and the EC50 [15] is reported as 10.3 µM (active). For the same molecule, the AC50 [11] was 1.24 µM (active), the IC50 [16] was 7.69 µM (active) and the CC50 [17] was > 25 µM (active).

For O=c1c2ccc(F)cc2sn1Cc1ccccc1, the IC50 [18] was > 25 µM (inactive).

For O=C(NC1CCCCC1)C(c1cccnc1)N(C(=O)CCl)c1ccc(Cl)c(Cl)c1 (stereo not given), the IC50 [19] was 0.045 µM (active).

For Cc1ccc(Cn2nc(C)c(C(=O)OC(C)C(=O)NCc3ccccc3)c2Cl)cc1 (stereo not given), the EC50 [20] was > 50 µM (inactive).

In the case of CCOC(=O)c1c(C)[nH]c(O)c1/C=N/c1ccc(Cl)cc1, the “Absolute IC50 (XBP1)” value [21] is reported as 10 µM, the IC50 [22] is reported as 13.8 µM (active) and the “Absolute IC50 (CHOP)” value [23] is reported as 10 µM.

In the case of CCOC(=O)C1=C(C)N=C(C)/C(=C(\O)OCC)C1c1ccc(Br)o1 (stereo not given), the IC50 [24] is reported as 2.42 µM (active).

From ChEMBL document CHEMBL1201862, “PubChem BioAssay data set” (2004)
